Among the data in PubChem BioAssay (NCI) are TGI and GI50 values, retold here.

Some test systems named below: TK-10 renal; SF-295 CNS; CAKI-1 renal; SK-MEL-28 melanoma; HOP-62 NSCLC; SW-620 colon; NCI-H460 lung; EKVX NSCLC; 786-0 renal; M14 melanoma.
Experiment in all cases: NCI-60 cell line screen, 48 h

Where “and” joins values, the source holds several entries; their conditions need not be identical. Equal entries are not always repeated.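 How tested: cells in 96-well plates exposed to compound for 48 hours at five concentrations. Abbreviation: GI50, concentration required for 50% inhibition of growth. At the TGI there is no net growth.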

In the case of `O=C1CCC(=O)N2CCCCN12`, the TGI with TK-10 renal, in the assay on SF-295 CNS, in the assay with CAKI-1 renal, in the assay with SK-MEL-28 melanoma, with HOP-62 NSCLC and with SW-620 colon was > 100 µM each time. Moreover, the TGI with NCI-H460 lung, with EKVX NSCLC, with 786-0 renal and in the assay on M14 melanoma was > 100 µM each time.
Consider `N#Cc1ccc(NC(=O)Nc2ccc(Oc3ccc(NC(=O)Nc4ccc(C#N)cc4)cc3)cc2)cc1`, for which the GI50 in the assay with TK-10 renal was 23.2 µM; in the assay with SF-295 CNS it was 0.379 µM; in the assay with CAKI-1 renal, 20.8 µM; with SK-MEL-28 melanoma, 79.2 µM; with HOP-62 NSCLC, 3.06 µM; in the assay on SW-620 colon, 26 µM. Moreover, the GI50 with NCI-H460 lung was 3.24 µM; with EKVX NSCLC, 10.3 µM; in the assay with 786-0 renal, 10.5 µM; in the assay with M14 melanoma it was 28.3 µM. The TGI is 89 µM with TK-10 renal; 13.6 µM in the assay on SF-295 CNS; > 100 µM in the assay with CAKI-1 renal; > 100 µM with SK-MEL-28 melanoma; 20.6 µM in the assay on HOP-62 NSCLC; > 100 µM in the assay on SW-620 colon. Besides, the TGI was > 100 µM in the assay with NCI-H460 lung, > 100 µM with EKVX NSCLC, 63.4 µM in the assay with 786-0 renal and > 100 µM with M14 melanoma.
As for `C=C1C(=O)O[C@H]2[C@H]1CC/C(Cn1cc(-c3ccc(OC)cc3)nn1)=C\CC[C@@]1(C)O[C@@H]21`, the GI50 in the assay with TK-10 renal was 1.42 µM; with SF-295 CNS it was 11 µM; with CAKI-1 renal it was 1.03 µM; with SK-MEL-28 melanoma it was 0.822 µM; in the assay on HOP-62 NSCLC, 10.5 µM; in the assay with SW-620 colon, 0.498 µM. For the same compound, the GI50 in the assay on NCI-H460 lung was 8.45 µM; in the assay with EKVX NSCLC, 2.47 µM; in the assay on 786-0 renal, 1.24 µM; with M14 melanoma, 1.3 µM. Also, the TGI with TK-10 renal was found to be 2.85 µM; with SF-295 CNS it was 23.7 µM; with CAKI-1 renal, 3.63 µM; with SK-MEL-28 melanoma it was 2.41 µM; in the assay on HOP-62 NSCLC, 23.1 µM; in the assay with SW-620 colon it was 1.74 µM. Further, the TGI in the assay with NCI-H460 lung amounted to 25.2 µM; in the assay with EKVX NSCLC, 10.3 µM; in the assay with 786-0 renal, 2.65 µM; in the assay on M14 melanoma, 3.09 µM.
For `COC(=O)C1Cc2c(n(Cc3ccccc3)c3ccccc23)C(CCC(=O)O)N1C(C)C` (stereo unspecified), the TGI with TK-10 renal, with SF-295 CNS, in the assay with CAKI-1 renal, in the assay with SK-MEL-28 melanoma, in the assay on SW-620 colon and in the assay with NCI-H460 lung was > 100 µM in each case. Also, the TGI in the assay with EKVX NSCLC, in the assay on 786-0 renal and with M14 melanoma was > 100 µM each time.
In the case of `CCC[CH2][Sn]1([CH2]CCC)[O]Cc2nc(C)ccc2[O]1`, the GI50 with TK-10 renal was 3.97 µM; in the assay with SF-295 CNS, 2.02 µM; in the assay on CAKI-1 renal it was 2.36 µM; in the assay with SK-MEL-28 melanoma it was 10.6 µM; with HOP-62 NSCLC it was 10.1 µM; with SW-620 colon, 2.81 µM. For the same compound, the GI50 was 16 µM in the assay with NCI-H460 lung, 4.36 µM in the assay with EKVX NSCLC, 5.04 µM with 786-0 renal and 10.9 µM in the assay with M14 melanoma. Further, the TGI is 14.7 µM with TK-10 renal; 3.69 µM in the assay on SF-295 CNS; 9.03 µM in the assay with CAKI-1 renal; 22.4 µM in the assay with SK-MEL-28 melanoma; 22.5 µM with HOP-62 NSCLC; 12.1 µM with SW-620 colon. Besides, the TGI stood at 31.1 µM in the assay on NCI-H460 lung, 18.2 µM in the assay on EKVX NSCLC, 16.8 µM with 786-0 renal and 23.5 µM with M14 melanoma.
As for `COc1ccc(NC2=CC(=O)C(=O)c3ccccc32)nn1`, the TGI was 9.92 µM with TK-10 renal; 2.15 µM in the assay with SF-295 CNS; 6.24 µM in the assay with CAKI-1 renal; 2.3 µM in the assay with SK-MEL-28 melanoma; 3.4 µM with SW-620 colon; 3.49 µM in the assay on NCI-H460 lung. In addition, the TGI with EKVX NSCLC was 9.82 µM; with 786-0 renal, 3.76 µM; in the assay on M14 melanoma it was 0.668 µM.
Regarding `C[C@]12CC[C@H]3[C@@H](CC=C4C[C@@H](O)CC[C@@]43C)[C@@H]1CC[C@@H]2N(CCO)CCO`, the TGI in the assay with TK-10 renal, in the assay with SF-295 CNS, in the assay on CAKI-1 renal, in the assay on SK-MEL-28 melanoma, in the assay on HOP-62 NSCLC and in the assay with SW-620 colon was > 100 µM in each case. The TGI in the assay on NCI-H460 lung is > 100 µM; in the assay with EKVX NSCLC, 78.1 µM; in the assay with 786-0 renal it was 42.7 µM; in the assay on M14 melanoma, > 100 µM.
Turning to `O=C(/N=N/C(=O)OCc1ccccc1)OCc1ccccc1`, the TGI in the assay with TK-10 renal, in the assay on SF-295 CNS, in the assay on CAKI-1 renal, with HOP-62 NSCLC, with SW-620 colon and in the assay with NCI-H460 lung was > 100 µM each time. The TGI in the assay on EKVX NSCLC, in the assay with 786-0 renal and with M14 melanoma was > 100 µM each time.
For the compound `CCN(CC)CCOc1ccc(/C(=C(\Cl)c2ccccc2)c2ccccc2)cc1`, the GI50 is 5.62 µM and 2.83 µM in the assay on TK-10 renal; 1.06 µM and 1.87 µM in the assay with SF-295 CNS; 5.47 µM and 1.66 µM in the assay with CAKI-1 renal; 1.07 µM and 1.79 µM in the assay on SK-MEL-28 melanoma; 1.38 µM and 1.94 µM in the assay with HOP-62 NSCLC; 1.11 µM and 1.74 µM with SW-620 colon. Besides, the GI50 in the assay on NCI-H460 lung is 1.72 µM and 1.78 µM; in the assay with EKVX NSCLC, 5.74 µM and 3.44 µM; in the assay on 786-0 renal it was 0.94 µM and 1.7 µM; with M14 melanoma, 1.03 µM and 1.73 µM. The TGI was 12.6 µM and 10.2 µM with TK-10 renal; 2.54 µM and 4.02 µM with SF-295 CNS; 12.3 µM and 5.48 µM in the assay on CAKI-1 renal; 2.21 µM and 3.47 µM in the assay with SK-MEL-28 melanoma; 4.76 µM and 4.16 µM in the assay with HOP-62 NSCLC; 2.56 µM and 3.73 µM in the assay with SW-620 colon. Besides, the TGI in the assay with NCI-H460 lung is 5.32 µM and 3.43 µM; in the assay with EKVX NSCLC it was 13 µM and 17.3 µM; with 786-0 renal, 1.81 µM and 3.17 µM; in the assay on M14 melanoma it was 2.04 µM and 3.44 µM.
As to `C=CC(=O)N1CC2(CCN(c3nc(OC4CCN(CCCOC)CC4)nc4c(OCC(F)(F)F)c(-c5c(C)ccc6[nH]ncc56)c(C5CC5)cc34)CC2)C1`, the GI50 is 3.73 µM in the assay on TK-10 renal; 2.08 µM in the assay with SF-295 CNS; 4.15 µM with CAKI-1 renal; 1.75 µM in the assay with SK-MEL-28 melanoma; 1.82 µM in the assay with SW-620 colon; 2.09 µM with NCI-H460 lung. In addition, the GI50 in the assay on EKVX NSCLC was 4.33 µM; in the assay with 786-0 renal it was 4.4 µM; in the assay on M14 melanoma it was 2 µM. The TGI was 14.3 µM in the assay with TK-10 renal; 5.65 µM in the assay with SF-295 CNS; 15.2 µM with CAKI-1 renal; 3.37 µM with SK-MEL-28 melanoma; 19.6 µM in the assay on HOP-62 NSCLC; 3.59 µM with SW-620 colon. Also, the TGI in the assay on NCI-H460 lung came out at 4.4 µM; in the assay on EKVX NSCLC, 16.9 µM; in the assay on 786-0 renal, 18.2 µM; in the assay on M14 melanoma, 3.97 µM.
